The source of these data is ChEMBL document CHEMBL4265964, “Discover the leading compound of 4β-S-(5-fluorobenzoxazole)-4-deoxy-4'-demethylepipodophyllotoxin with millimolar-potency toxicity by modifying the molecule structure of 4'-demethylepipodophyllotoxin” (Eur J Med Chem, 2018).

Molecules are shown by their SMILES. Active and inactive are the calls of the source. The rule behind the calls is not given here.

The subject of assay [1] is MRC5. Put plainly: Cytotoxicity against human MRC5 cells after 48 hrs by MTT assay. It counts as cell-based. The conditions noted are these: MRC5, 48 h. (Formazan colour is commonly taken as a measure of viable cells.)
Assay [2] is described as follows: Cytotoxicity against human H8 cells after 48 hrs by MTT assay. Type of assay: cell-based.
Assay [3] concerns HeLa. Put plainly: Cytotoxicity against human HeLa cells after 48 hrs by MTT assay. It counts as functional, cell-based.
Assay [4] deals with HepG2. Put plainly: Cytotoxicity against human HepG2 cells after 48 hrs by MTT assay. It counts as functional, cell-based. The conditions noted are these: HepG2, 48 h.
The subject of assay [5] is A549. Briefly: Cytotoxicity against human A549 cells after 48 hrs by MTT assay. It counts as functional, cell-based. The conditions noted are these: A549, 48 h.
Assay [6] has as its system HMEC. Put plainly: Cytotoxicity against HMEC after 48 hrs by MTT assay. It counts as cell-based. The conditions noted are these: Homo sapiens.
The test system of assay [7] is MCF7. Put plainly: Cytotoxicity against human MCF7 cells after 48 hrs by MTT assay. It counts as functional, cell-based. As to conditions: MCF7, 48 h.
The subject of assay [8] is L02. Put plainly: Cytotoxicity against human HL7702 cells after 48 hrs by MTT assay. Type of assay: cell-based. The conditions noted are these: L02, 48 h.
The species entered for assay [9] is Homo sapiens. Put plainly: Inhibition of human topoisomerase-2 assessed as reduction in relaxation of kinetoplast DNA at 100 uM after 30 mins by ethidium bromide staining based agarose gel electrophoresis method.
For assay [10], the species on record is Homo sapiens. Put plainly: Inhibition of human topoisomerase-2 assessed as reduction in relaxation of kinetoplast DNA at 200 uM after 30 mins by ethidium bromide staining based agarose gel electrophoresis method.
The species named for assay [11] is Homo sapiens. Briefly: Inhibition of human topoisomerase-2 assessed as reduction in relaxation of kinetoplast DNA at 50 uM after 30 mins by ethidium bromide staining based agarose gel electrophoresis method.

Take `COc1cc([C@@H]2c3cc4c(cc3[C@@H](c3nc5cc(C(F)(F)F)ccc5o3)[C@H]3COC(=O)[C@H]23)OCO4)cc(OC)c1O`: the IC50 (commonly the concentration needed to halve the response being measured) was 73.3 µM in assay [1]; 81 µM in [2]; 21.1 µM in [3]; 19.5 µM in assay [4]; 6.5 µM in assay [5]; 72.8 µM in assay [6]. Moreover, the 50% inhibitory concentration (IC50) is 34.5 µM in assay [7] and 79.5 µM in assay [8].
As to `COc1cc([C@@H]2c3cc4c(cc3[C@@H](C3CC(S)NN3c3ccccc3F)[C@H]3COC(=O)[C@H]23)OCO4)cc(OC)c1O` (some centres undefined), the half-inhibitory concentration (IC50) was found to be 89.2 µM in assay [1]; 64.2 µM in [2]; 3.8 µM in [3]; 4.5 µM in assay [4]; 2.8 µM in [5]; 58.2 µM in assay [6]. The 50% inhibitory concentration (IC50) in assay [7] came out at 1.5 µM; in assay [8] it was 73 µM.
Regarding `COc1cc([C@@H]2c3cc4c(cc3[C@@H](c3nc5c(F)c(F)c(F)c(F)c5o3)[C@H]3COC(=O)[C@H]23)OCO4)cc(OC)c1O`, the IC50 in [1] was found to be 65.4 µM; in [2] it was 44.6 µM; in [3], 4.3 µM; in [4], 6.8 µM; in assay [5], 1.7 µM; in assay [6] it was 75.5 µM. Further, the IC50 worked out at 3.5 µM in assay [7] and 75.1 µM in assay [8].
With `COc1cc([C@@H]2c3cc4c(cc3[C@@H](c3nc5c(F)c(F)c(F)c(F)c5s3)[C@H]3COC(=O)[C@H]23)OCO4)cc(OC)c1O`, the IC50 in assay [1] amounted to 41.4 µM; in assay [2], 24.7 µM; in assay [3] it was 2.3 µM; in assay [4] it was 14.5 µM; in assay [5] it was 4.2 µM; in assay [6] it was 18.2 µM. Moreover, the concentration for half-maximal inhibition (IC50) in [7] is 5.5 µM; in assay [8] it was 35.6 µM.
Regarding `COc1cc([C@@H]2c3cc4c(cc3[C@@H](c3nc5cc(-c6ccccc6)ccc5s3)[C@H]3COC(=O)[C@H]23)OCO4)cc(OC)c1O`, the half-inhibitory concentration (IC50) was 35.6 µM in [1]; 47.6 µM in [2]; 22.5 µM in [3]; 15.3 µM in [4]; 5.7 µM in [5]; 54.1 µM in [6]. Moreover, the IC50 in [7] was more than 100 µM; in assay [8], 18.6 µM.
For the compound `COc1cc([C@@H]2c3cc4c(cc3[C@@H](c3nc5ccccc5o3)[C@H]3COC(=O)[C@H]23)OCO4)cc(OC)c1O`, the half-inhibitory concentration (IC50) in assay [1] is 32.3 µM; in assay [2] it was 20.4 µM; in [3], 16.4 µM; in assay [4] it was 19.4 µM; in [5], 25.6 µM; in [6] it was 15.6 µM. In addition, the IC50 was determined as 21.4 µM in [7] and 17.7 µM in assay [8].
Consider `COc1cc([C@@H]2c3cc4c(cc3[C@@H](C3CC(c5ccncc5)=CN3)[C@H]3COC(=O)[C@H]23)OCO4)cc(OC)c1O` (some centres undefined), for which the concentration for half-maximal inhibition (IC50) in assay [1] turned out to be 19 µM; in assay [2], 23.6 µM; in [3], 5.7 µM; in [4] it was 10 µM; in assay [5] it was 2 µM; in [6], 38.1 µM. Besides, the 50% inhibitory concentration (IC50) worked out at 4.3 µM in assay [7] and 22.8 µM in assay [8].
Regarding `COc1cc([C@@H]2c3cc4c(cc3[C@@H](c3nc5cc(OC(F)F)ccc5[nH]3)[C@H]3COC(=O)[C@H]23)OCO4)cc(OC)c1O`, the IC50 in [1] worked out at 60.2 µM; in [2], 55.4 µM; in [3], 2.1 µM; in assay [4] it was 1.6 µM; in assay [5], 1.3 µM; in assay [6], 51.4 µM. Also, the IC50 amounted to 2.4 µM in assay [7] and 15.6 µM in assay [8].
On to `COc1cc([C@@H]2c3cc4c(cc3[C@@H](c3nc5ccccc5s3)[C@H]3COC(=O)[C@H]23)OCO4)cc(OC)c1O`, for which the IC50 amounted to 136 µM in assay [1]; 19.4 µM in assay [2]; 5.1 µM in assay [3]; 6.7 µM in assay [4]; 2.6 µM in [5]; 28.6 µM in assay [6]. The IC50 in assay [7] worked out at 11.5 µM; in assay [8] it was 22.7 µM.
Consider `COc1cc([C@@H]2c3cc4c(cc3[C@@H](c3nc5cnc(F)cc5[nH]3)[C@H]3COC(=O)[C@H]23)OCO4)cc(OC)c1O`, for which the inhibition entry in [9] and in [11] was “inactive” each time. Also, the IC50 was 41.3 µM in assay [1]; 34 µM in assay [2]; 11.9 µM in assay [3]; 22.5 µM in assay [4]; 24.5 µM in [5]; more than 100 µM in assay [6]. For the same compound, the IC50 is 16.4 µM in assay [7] and 29.8 µM in assay [8]. Moreover, the inhibition entry in [10] was “Active”.
Regarding `COc1cc([C@@H]2c3cc4c(cc3[C@@H](c3nc5cc(C)ccc5s3)[C@H]3COC(=O)[C@H]23)OCO4)cc(OC)c1O`, the concentration for half-maximal inhibition (IC50) in assay [1] was 47 µM; in [2] it was 27.5 µM; in [3] it was 5.1 µM; in [4], 8.2 µM; in assay [5] it was 3 µM; in assay [6], 15.6 µM. In addition, the IC50 amounted to 5.4 µM in assay [7] and 24.2 µM in assay [8].
In the case of `COc1cc([C@@H]2c3cc4c(cc3[C@@H](O)[C@H]3COC(=O)[C@H]23)OCO4)cc(OC)c1O` [4'-DEMETHYLEPIPODOPHYLLOTOXIN], the IC50 is 21.3 µM in assay [1]; 25.1 µM in assay [2]; 27.8 µM in [3]; 26.1 µM in assay [4]; 19 µM in [5]; 19.6 µM in [6]. The half-inhibitory concentration (IC50) in assay [7] was 30.1 µM; in assay [8], 19.4 µM.
In the case of `COc1cc([C@@H]2c3cc4c(cc3[C@@H](c3nc5cc(C(F)(F)F)ccc5s3)[C@H]3COC(=O)[C@H]23)OCO4)cc(OC)c1O`, the half-inhibitory concentration (IC50) in assay [1] was found to be 73.3 µM; in [2], 81 µM; in assay [3], 21.1 µM; in assay [4], 19.5 µM; in assay [5] it was 6.5 µM; in [6], 42.3 µM. The IC50 in assay [7] was 34.5 µM; in assay [8] it was 79.5 µM.
In the case of `COc1cc([C@@H]2c3cc4c(cc3[C@@H](c3nc5cc(-c6ccccc6)ccc5o3)[C@H]3COC(=O)[C@H]23)OCO4)cc(OC)c1O`, the IC50 was 76.3 µM in [1]; more than 100 µM in assay [2]; more than 100 µM in assay [3]; more than 100 µM in assay [4]; more than 100 µM in assay [5]; 83.4 µM in assay [6]. Also, the values for the IC50 in [7] and in assay [8] were more than 100 µM and 21.7 µM, respectively.
Turning to `COc1cc([C@@H]2c3cc4c(cc3[C@@H](c3nc5cc(C)ccc5o3)[C@H]3COC(=O)[C@H]23)OCO4)cc(OC)c1O`, the IC50 in assay [1] came out at 39 µM; in assay [2] it was 19.5 µM; in assay [3] it was 15.4 µM; in assay [4], 15.4 µM; in [5] it was 8 µM; in assay [6], 12.6 µM. Besides, the 50% inhibitory concentration (IC50) in assay [7] was found to be 14.4 µM; in [8] it was 31.5 µM.
As for `COc1cc([C@@H]2c3cc4c(cc3[C@@H](C3CC(c5ccncc5F)=CN3)[C@H]3COC(=O)[C@H]23)OCO4)cc(OC)c1O` (some centres undefined), the 50% inhibitory concentration (IC50) in assay [1] was found to be 28.1 µM; in [2], 19.2 µM; in [3] it was 1.9 µM; in assay [4], 2.8 µM; in [5], 1.4 µM; in assay [6] it was 31.5 µM. Also, the half-inhibitory concentration (IC50) in assay [7] was determined as 2.5 µM; in [8] it was 19.8 µM.
With `COc1cc([C@@H]2c3cc4c(cc3[C@@H](c3nc5cnccc5[nH]3)[C@H]3COC(=O)[C@H]23)OCO4)cc(OC)c1O`, the IC50 in assay [1] was 63.4 µM; in assay [2], more than 100 µM; in assay [3], more than 100 µM; in assay [4], more than 100 µM; in assay [5], more than 100 µM; in [6], more than 100 µM. For the same compound, the figures for the half-maximal inhibitory concentration (IC50) in [7] and in assay [8] were more than 100 µM and 59.8 µM, respectively.
